Values after ≈ are worked out from the molar mass of the structure shown.

Broadly, the MIC is the lowest concentration found to suppress growth. Low values mean greater potency, high ones weaker potency.

In assay [1] the test system is Escherichia coli. The experiment in a line: Antimicrobial activity against Escherichia coli NIHJ. It counts as functional.
In assay [2] the test system is Escherichia coli. Description: Antimicrobial activity against Escherichia coli NIHJ JC2. In kind it is functional.
Assay [3] relates to Klebsiella pneumoniae. The experiment in a line: Antimicrobial activity against Klebsiella pneumoniae 602. It counts as functional.
Assay [4] deals with Klebsiella pneumoniae. Description: Antimicrobial activity against Klebsiella pneumoniae PCI602. It counts as functional.
The next assay has as its system Proteus mirabilis. Description: Antimicrobial activity against Proteus mirabilis GN2425. It counts as functional.
The subject of another assay is Proteus vulgaris. Description: Antimicrobial activity against Proteus vulgaris HX19. It counts as functional.
In another assay the test system is Salmonella typhi. The experiment in a line: Antimicrobial activity against Salmonella typhi T58. The settings on record: Salmonella enterica. It counts as functional, Salmonella enterica subsp. enterica serovar Typhi.
Assay [5] relates to Staphylococcus aureus. The experiment in a line: Antimicrobial activity against Staphylococcus aureus 209P. In kind it is functional.
For assay [6], the system named is Staphylococcus aureus. Description: Antimicrobial activity against Staphylococcus aureus 209p JC1. It counts as functional.
For assay [7], the system named is Pseudomonas aeruginosa. The experiment in a line: Antimicrobial activity against Pseudomonas aeruginosa 104. It counts as functional.
Assay [8] concerns Pseudomonas aeruginosa. Description: Antimicrobial activity against Pseudomonas aeruginosa TU408. In kind it is functional.

On to `CCn1cc(C(=O)O)c(=O)c2ccc(C)cc21`, for which the MIC against Escherichia coli [1] is 6.25 µg/mL (≈ 27 µM); against Escherichia coli [2], 6.25 µg/mL (≈ 27 µM); against Klebsiella pneumoniae [3], 25 µg/mL (≈ 108 µM); against Klebsiella pneumoniae [4], 6.25 µg/mL (≈ 27 µM); in the assay with Proteus mirabilis, 12.5 µg/mL (≈ 54.1 µM); against Proteus vulgaris, 12.5 µg/mL (≈ 54.1 µM). Further, the MIC is 12.5 µg/mL (≈ 54.1 µM) against Salmonella typhi; 200 µg/mL (≈ 865 µM) in the assay with Staphylococcus aureus [5]; over 50 µg/mL against Staphylococcus aureus [6]; over 200 µg/mL in the assay with Pseudomonas aeruginosa [7]; over 50 µg/mL against Pseudomonas aeruginosa [8].

As to `CCn1cc(C(=O)O)c(=O)c2ccc(Cl)cc21`, the minimum inhibitory concentration (MIC) with Escherichia coli [1] came to 25 µg/mL (≈ 99.3 µM); in the assay on Klebsiella pneumoniae [3], 25 µg/mL (≈ 99.3 µM); against Proteus mirabilis, 12.5 µg/mL (≈ 49.7 µM); against Proteus vulgaris it was 25 µg/mL (≈ 99.3 µM); in the assay on Staphylococcus aureus [5], 50 µg/mL (≈ 199 µM); with Pseudomonas aeruginosa [7] it was 200 µg/mL (≈ 795 µM).

For the compound `CCn1cc(C(=O)O)c(=O)c2ccc(C)nc21` [NALIDIXIC ACID], the MIC with Escherichia coli [1] stood at 3.13 µg/mL (≈ 13.5 µM); against Escherichia coli [2] it was 6.25 µg/mL (≈ 26.9 µM); against Klebsiella pneumoniae [3], 6.25 µg/mL (≈ 26.9 µM); in the assay with Klebsiella pneumoniae [4] it was 6.25 µg/mL (≈ 26.9 µM); against Proteus mirabilis, 12.5 µg/mL (≈ 53.8 µM); against Proteus vulgaris, 1.56 µg/mL (≈ 6.72 µM). Also, the MIC is 6.25 µg/mL (≈ 26.9 µM) against Salmonella typhi; 100 µg/mL (≈ 431 µM) against Staphylococcus aureus [5]; over 50 µg/mL in the assay on Staphylococcus aureus [6]; 200 µg/mL (≈ 861 µM) with Pseudomonas aeruginosa [7]; over 50 µg/mL against Pseudomonas aeruginosa [8].

These data come from ChEMBL document CHEMBL3576789, “Origins of the Quinolone Class of Antibacterials: An Expanded "Discovery Story"” (2015).
